Data on eleven compounds can be found in patent publication US20220204497A1, “NOVEL COMPOUND HAVING ANTICANCER ACTIVITY, AND METHOD FOR PRODUCING SAME” (MEDICINAL BIOCONVERGENCE RESEARCH CENTER, priority 2019, published 2022).

In data set [1] the target is T1, AIMP2-DX2 (Homo sapiens, UniProt Q13155).
T1 sequence (Q13155 1-251 isoform Q13155-2): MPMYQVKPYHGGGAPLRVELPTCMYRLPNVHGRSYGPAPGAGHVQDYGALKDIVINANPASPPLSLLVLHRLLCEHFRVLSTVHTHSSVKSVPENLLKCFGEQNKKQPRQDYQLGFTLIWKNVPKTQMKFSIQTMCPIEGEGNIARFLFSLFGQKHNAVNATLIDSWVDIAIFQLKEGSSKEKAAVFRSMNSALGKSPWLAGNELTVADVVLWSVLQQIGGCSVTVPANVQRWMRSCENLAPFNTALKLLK
As to the kind of experiment: DX2-nanoluciferase assay (DX2 expression change) in transfected A549 cells. Particulars: for inhibition at 40 µM / inhibition at 10 µM: A549, 4 h; for inhibition at 40 µM: read-out: DX-Nanoluciferase activity (40 μM), 40 μM, 4 hours treatment, A549 cells transfected with nanoluciferase-DX2, inhibitory effect on AIMP2-DX2 expression; for inhibition at 10 µM: read-out: DX-Nanoluciferase activity (10 μM), 10 μM, 4 hours treatment, A549 cells transfected with nanoluciferase-DX2; for DX-Nanoluciferase activity (10 μM): 4 hours treatment, A549 cells transfected with nanoluciferase-DX2.
Description: After cloning DX2 into a plasmid expressing nanoluciferase, the plasmid was transfected into A549 cells. Transfected cells were seeded 1×10^4 per well in a 96-well plate and stabilized for 12 hours. […] Cell viability was measured by the MTT method after 72 hours of treatment with each concentration of the compound in A549 cells.

Data set [2] has as its system A549 cells. Briefly: Cell viability by MTT method in A549 cells. The class given is cell-based. Set-up: concentration or dose not given beside the values. To be noted: 72 hours treatment.

As to `Cc1ccc(S(=O)(=O)NCC(=O)N2CCOCC2)cc1` [Compound 155, 4-Methyl-N-(2-morpholino-2-oxoethyl)benzenesulfonamide], the inhibition at 40 µM in data set [1] amounted to 31.3 ± 4.4%. In addition, the “Cell Viability (% inhibition) (A549)” value in data set [2] was determined as 17.30 ± 0.81%.

With `Cc1ccc(S(=O)(=O)NC2(C(=O)N3CCOCC3)CCCCC2)cc1` [Compound 156, 4-Methyl-N-(1-(morpholine-4-carbonyl)cyclohexyl)benzenesulfonamide], the inhibition at 40 µM in data set [1] was -0.2 ± 6.6%. In addition, in data set [2], the “Cell Viability (% inhibition) (A549)” value came out at 13.51 ± 2.04%.

Turning to `O=C(Nc1ccc(N2CCOCC2)cc1)[C@H](Cc1c[nH]c2ccccc12)NS(=O)(=O)c1ccc(O)cc1` [Compound 158, (S)-2-(4-Hydroxyphenylsulfonamido)-3-(1H-indol-3-yl)-N-(4-morpholinophenyl)propanamide], the inhibition at 10 µM in data set [1] is -7.04 ± 4.87%. Further, the “Cell Viability (% inhibition) (A549)” value in data set [2] is 24.87 ± ? .01%.

On to `O=C(O)c1ccc(S(=O)(=O)N[C@@H](Cc2c[nH]c3ccccc23)C(=O)Nc2ccc(N3CCOCC3)cc2)cc1` [Compound 159, (S)-4-(N-(3-(1-indol-3-yl)-1-(4-morpholinophenylamino)-1-oxopropan-2-yl)sulfamoyl)benzoic acid], for which the “DX-Nanoluciferase activity (10 μM)” value in data set [1] is on record as 1.75 ± 8.96 (10 μM). The “Cell Viability (% inhibition) (A549)” value in data set [2] is recorded as 24.60 ± ? .96%.

As to `N[C@@H](Cc1c[nH]c2ccccc12)C(=O)Nc1ccc(N2CCOCC2)cc1` [Compound 160, (S)-2-Amino-3-(1-indol-3-yl)-N-(4-morpholinophenyl)propanamide], in data set [1], the “DX-Nanoluciferase activity (10 μM)” value is 14.92 ± 17.49 (10 μM). Also, in data set [2], the “Cell Viability (% inhibition) (A549)” value stood at 15.52 ± 9.58%.

Take `CC(=O)N1CCN(c2ccc(NC(=O)[C@H](Cc3c[nH]c4ccccc34)NS(=O)(=O)c3ccc(C)cc3)cc2)CC1` [Compound 162, (S)—N-(4-(4-Acetylpiperazin-1-yl)phenyl)-3-(1H-indol-3-yl)-2-(4-methylphenylsulfonamido)propanamide]: in data set [1], the inhibition at 10 µM is 20.6 ± 3.17%. Also, the “Cell Viability (% inhibition) (A549)” value in data set [2] was 19.92 ± 16.25%.

Regarding `Cc1ccc(S(=O)(=O)N[C@@H](Cc2c[nH]c3ccccc23)C(=O)NC(C)C)cc1` [Compound 180, (S)-3-(1H-indol-3-yl)-N-isopropyl-2-(4-methylphenylsulfonamido)propanamide], in data set [1], the inhibition at 40 µM was found to be 4.04 ± 4.08%. Further, the “Cell Viability (% inhibition) (A549)” value in data set [2] came out at 28.20 ± 5.02%.

Turning to `CC(C)NC(=O)[C@H](Cc1c[nH]c2ccccc12)NS(=O)(=O)c1ccc(Br)cc1` [Compound 181, (S)-2-(4-Bromophenylsulfonamido)-3-(1H-indol-3-yl)-N-isopropylpropanamide], in data set [1], the inhibition at 40 µM turned out to be 44.1 ± 2.97%. Moreover, in data set [2], the “Cell Viability (% inhibition) (A549)” value was determined as 98.95 ± 0.74%.

As to `COc1ccc(C(=O)NNC(=O)[C@H](Cc2c[nH]c3ccccc23)NS(=O)(=O)c2ccc(C)cc2)cc1` [Compound 182, (S)—N-(3-(1H-indol-3-yl)-1-(2-(4-methoxybenzoyl)hydrazinyl)-1-oxopropan-2-yl)-4-methylbenzenesulfonamide], the “DX-Nanoluciferase activity (10 μM)” value in data set [1] is reported as 69.62 ± 3.16 (10 μM). For the same compound, the “Cell Viability (% inhibition) (A549)” value in data set [2] was found to be 0.19 ± 15.38%.

With `COc1ccc(NC(=O)NNC(=O)[C@H](Cc2c[nH]c3ccccc23)NS(=O)(=O)c2ccc(C)cc2)cc1` [Compound 183, (S)-2-(3-(1H-indol-3-yl)-2-(4-methylphenylsulfonamido)propanoyl)-N-(4-methoxyphenyl)hydrazinecarboxamide], the inhibition at 10 µM in data set [1] is 68.1 ± 8.2%. For the same compound, in data set [2], the “Cell Viability (% inhibition) (A549)” value is reported as 42.25 ± 5.21%.

Regarding `Cc1cc(C)n(C(=O)[C@H](Cc2c[nH]c3ccccc23)NS(=O)(=O)c2ccc(Br)cc2)n1` [Compound 184, (S)-4-Bromo-N-(1-(3,5-dimethyl-1H-pyrazol-1-yl)-3-(1H-indol-3-yl)-1-oxopropan-2-yl)benzenesulfonamide], the inhibition at 10 µM in data set [1] was 78.4%. In addition, the “Cell Viability (% inhibition) (A549)” value in data set [2] was −24.64 ± 2.77%.
